Reference: patent publication US20020094522A1, “Means and methods for monitoring non-nucleoside reverse transcriptase inhibitor antiretroviral therapy and guiding therapeutic decisions in the treatment of HIV/AIDS” (priority 2000, published 2002)

Tests used:
[1] = system: Y188L-RTV (HIV reverse transcriptase Y188L); assay: Phenotypic susceptibility assay, Y188L-RTV; format: cell-based, HIV-1; conditions: site directed mutant
Description: (§1) The resistance test vectors containing a functional luciferase gene cassette were constructed and host cells were transfected with the resistance test vector DNA. The resistant test vectors contained patient-derived reverse transcriptase and protease sequences that were either susceptible or resistant to the antiretroviral agents, such as nucleoside reverse transcriptase inhibitors, non-nucleoside reverse transcriptase inhibitors and protease inhibitors. The resistance test vector viral particles produced by transfecting the resistance test vector DNA into host cells, either in the presence or absence of protease inhibitors, were used to infect target host cells grown either in the absence of NRTI or NNRTI or in the presence of increasing concentrations of the drug. The amount of luciferase activity produced in infected target host cells in the presence of drug was compared to the amount of luciferase produced in infected target host cells in the absence of drug. Drug resistance was measured as the amount of drug required to inhibit by 50% the luciferase activity detected in the absence of drug (inhibitory concentration 50%, IC50). The IC50 values were determined by plotting percent drug inhibition vs. log10 drug concentration.
(§2) Host cells were seeded in 10-cm-diameter dishes and were transfected several days after plating with resistance test vector plasmid DNA and the envelope expression vector. Transfections were performed using a calcium-phosphate precipitation procedure. The cell culture media containing the DNA precipitate was replaced with fresh medium, from one to 24 hours, after transfection. Cell culture media containing resistance test vector viral particles was harvested one to four days after transfection and was passed through a […] filter before being stored at −80° C. HIV capsid protein (p24) levels in the harvested cell culture media were determined by an EIA method as described by the manufacturer (SIAC; Frederick, Md.). […] The inhibitory effect of the drug was determined using the following equation: […]

[2] = system: G190S-RTV (HIV reverse transcriptase G190S); assay: Phenotypic susceptibility assay, G190S-RTV; format: cell-based, HIV-1; conditions: for change in susceptibility compared to wild type reference RTV: Example 5; for fold change in susceptibility compared to wild type control RTV: values <1 = increased susceptibility
Description: as §1
as §2, with “Md.). Before infection, target cells (293 and 293/T) were plated in cell culture media. Control infections were performed using cell culture media from mock transfections (no DNA) or transfections containing the resistance test vector plasmid DNA without the envelope expression plasmid. One to three or more days after infection the media was removed and cell lysis buffer (Promega) was added to each well.” for “Md.).”
(§3) where RLUluc [drug] is the relative light unit of luciferase activity in infected cells in the presence of drug and RLUluc is the Relative Light Unit of luciferase activity in infected cells in the absence of drug. IC50 values were obtained from the sigmoidal curves that were generated from the data by plotting the percent inhibition of luciferase activity vs. the log10 drug concentration.

[3] = system: K101E-RTV (HIV reverse transcriptase K101E); assay: Phenotypic susceptibility assay, K101E-RTV; format: cell-based, HIV-1
Description: as §1
as §2, with “Md.). Before infection, target cells (293 and 293/T) were plated in cell culture media. Control infections were performed using cell culture media from mock transfections (no DNA) or transfections containing the resistance test vector plasmid DNA without the envelope expression plasmid. One to three or more days after infection the media was removed and cell lysis buffer (Promega) was added to each well.” for “Md.).”
as §3
The K101E and G190S mutations were introduced alone and in combination into resistance test vectors using the mega-primer method for site-directed mutagenesis (Sakar and Sommar, Ibid.). Resistance test vectors containing the K101E mutation (K101E-RTV), the G190S mutation (G190S-RTV) were then tested using the phenotypic assay described earlier and the results were compared to those determined using a genetically defined resistance test vector that was wild type at positions 101 and 190. […]

K101E-G190A-RTV = system: K101E-G190A-RTV
Description: as §1
as §2, with “Md.). Before infection, target cells (293 and 293/T) were plated in cell culture media. Control infections were performed using cell culture media from mock transfections (no DNA) or transfections containing the resistance test vector plasmid DNA without the envelope expression plasmid. One to three or more days after infection the media was removed and cell lysis buffer (Promega) was added to each well.” for “Md.).”
as §3
(§4) The K101E, K103N and G190A mutations were introduced alone and in combination into resistance test vectors using the mega-primer method for site-directed mutagenesis (Sakar and Sommar, Ibid.).

K103N-G190A-RTV = system: K103N-G190A-RTV
Description: as §1
as §2, with “Md.). Before infection, target cells (293 and 293/T) were plated in cell culture media. Control infections were performed using cell culture media from mock transfections (no DNA) or transfections containing the resistance test vector plasmid DNA without the envelope expression plasmid. One to three or more days after infection the media was removed and cell lysis buffer (Promega) was added to each well.” for “Md.).”
as §3, §4

[4] = system: RTV-1033 (patient sample 98-1033); assay: Phenotypic susceptibility assay, RTV-1033; format: cell-based, HIV-1; conditions: RTV-1033, patient-derived pool
Experimental: Transfections were performed using a calcium-phosphate precipitation procedure. […] Cell lysates were assayed for luciferase activity (FIG. 3).
The drug inhibition curves are shown in (FIG. 3).
A resistance test vector was constructed as described in Example 1 from a patient sample designated 98-1033. […] Isolation of viral RNA and RT/PCR was used to generate a patient derived segment that comprised viral sequences coding for all of PR and aa 1-313 of RT. The PDS was inserted into an indicator gene viral vector to generate resistance test vectors designated RTV-1033 and RTV-757. RTV-1033 and RTV-757 were then tested in a phenotypic assay to determine accurately and quantitatively the level of susceptibility to a panel of anti-retroviral drugs. […] An IC50 was determined for the resistance test vector pool for each drug tested. The pattern of susceptibility to all of the drugs tested was examined and compared to known patterns of susceptibility.

[5] = system: V189L-RTV (HIV reverse transcriptase V189L); assay: Phenotypic susceptibility assay, V189L-RTV; format: cell-based, HIV-1; conditions: V189-RTV (V189L), site directed mutant
Description: as §1, §2

[6] = system: F227L-RTV (HIV reverse transcriptase F227L); assay: Phenotypic susceptibility assay, F227L-RTV; format: cell-based, HIV-1; conditions: values <1 = increased susceptibility
Description: as §1, §2

V106A-Y181C-RTV = assay: Phenotypic susceptibility assay, V106A-Y181C-RTV; format: cell-based, HIV-1; conditions: site directed mutant
Description: as §1, §2

V106A-V189L-RTV = assay: Phenotypic susceptibility assay, V106A-V189L-RTV; format: cell-based, HIV-1; conditions: site directed mutant
Description: as §1, §2

V106A-F227-RTV = assay: Phenotypic susceptibility assay, V106A-F227-RTV; format: cell-based, HIV-1; conditions: site directed mutant
Description: as §1, §2

V106A-Y181C-F227L-RTV = assay: Phenotypic susceptibility assay, V106A-Y181C-F227L-RTV; format: cell-based, HIV-1; conditions: site directed mutant
Description: as §1, §2

[7] = printed in the K101E-RTV sentence of b302, second set of values

| Structure (SMILES) | fold loss of susceptibility compared to wild type control RTV [1] | change in susceptibility compared to wild type reference RTV [2] | fold change in susceptibility compared to wild type control RTV [2] [fold] | fold loss of susceptibility compared to wild type control RTV ([3]; {}) [fold] | fold loss of susceptibility compared to wild type control RTV (K101E-G190A-RTV) | fold loss of susceptibility compared to wild type control RTV (K103N-G190A-RTV) | fold decrease in susceptibility (IC50) [4] | fold change in susceptibility compared to wild type control RTV [5] [fold] | fold change in susceptibility compared to wild type control RTV [6] [fold] | fold loss of susceptibility compared to wild type control RTV (V106A-Y181C-RTV) | fold loss of susceptibility compared to wild type control RTV (V106A-V189L-RTV) [fold] | fold loss of susceptibility compared to wild type control RTV (V106A-F227-RTV) | fold loss of susceptibility compared to wild type control RTV (V106A-Y181C-F227L-RTV) | fold loss of susceptibility compared to wild type control RTV [3, 7] [fold] |
| --- | --- | --- | --- | --- | --- | --- | --- | --- | --- | --- | --- | --- | --- | --- |
| CC(C)Nc1cccnc1N1CCN(C(=O)c2cc3cc(NS(C)(=O)=O)ccc3[nH]2)CC1 [delavirdine] | 9 fold | slightly more susceptible to delavirdine | 0.5 | 5 | 2 fold | 40 fold | 30 fold | 1.8 | 0.03 | 100 fold | 3 | 3 fold | 50 fold |  |
| O=C1Nc2ccc(Cl)cc2[C@@](C#CC2CC2)(C(F)(F)F)O1 [efavirenz] | 110 fold |  | 8 | 5 | 120 fold | 215 fold | 200 fold | 1.3 | 0.48 | 4 fold | 1 | 8 fold | 12 fold | 30 |
| Cc1ccnc2c1NC(=O)c1cccnc1N2C1CC1 [nevirapine] | greater than 800 fold | markedly less susceptible to nevirapine | 75 | 12 | greater than 800 fold | greater than 800 fold | greater than 800 fold | 1.3 | 3 | greater than 800 fold | 50 | greater than 800 fold | greater than 800 fold | 55 |
